The values below come from ChEMBL document CHEMBL1128803 (Bioorg Med Chem Lett, 1995).

Type in all cases: protein assay
Test [1] concerns the target Phosphodiesterase 4 (Mus musculus, UniProt Q8VBU5+Q3UEI1+O89084+Q01063). The experiment in a line: Inhibition of [3H]rolipram binding to Phosphodiesterase 4 (PDE IV).
Test [2] addresses Phosphodiesterase 4 (Homo sapiens, UniProt P27815+Q08499+Q07343+Q08493). The experiment in a line: Inhibition of Phosphodiesterase 4.
Test [3] has as its target Phosphodiesterase 3 (Homo sapiens) (UniProt Q14432+Q13370). The experiment in a line: Inhibition of Phosphodiesterase 3 (PDE III) at 100 uM.

Structures are written as SMILES.

Regarding `COc1ccc(/C=C2\C(=O)Nc3ccccc32)cc1OC1CC2CCC1C2` (stereo unspecified), the IC50 at Phosphodiesterase 4 [1] was 3.2 µM; at Phosphodiesterase 4 [2], 3.7 µM.

For `COc1ccc(C2CNC(=O)C2)cc1OC1CCCC1` (stereo unspecified), the inhibition in test [3] was 23%.

Consider `COc1ccc(/C=C2\C(=O)Nc3ccc([N+](=O)[O-])cc32)cc1OC1CC2CCC1C2` (stereo unspecified), for which the results for the IC50 at Phosphodiesterase 4 [1] and against Phosphodiesterase 4 [2] were 62 µM and 1.2 µM, respectively. In addition, the inhibition in test [3] is 18%.

For `COc1ccc(/C=C2\C(=O)N(C)c3ccc(Cl)cc32)cc1OC1CC2CCC1C2` (stereo unspecified), the IC50 was 58 µM at Phosphodiesterase 4 [1] and 3.4 µM against Phosphodiesterase 4 [2]. The inhibition in test [3] was -9%.

With `COc1ccc(/C=C2\C(=O)Nc3ccc(Br)cc32)cc1OC1CC2CCC1C2` (stereo unspecified), the IC50 on Phosphodiesterase 4 [1] amounted to 50 µM; against Phosphodiesterase 4 [2], 1.7 µM. For the same compound, the inhibition in test [3] is 17%.

As for `COc1ccc(/C=C2/C(=O)N(C)c3ccc([N+](=O)[O-])cc32)cc1OC1CC2CCC1C2` (stereo unspecified), the IC50 was determined as 66 µM on Phosphodiesterase 4 [1] and 7.1 µM against Phosphodiesterase 4 [2]. Also, in test [3], the inhibition was 25%.

Consider `COc1ccc(/C=C2\C(=O)N(C)c3ccc(Br)cc32)cc1OC1CC2CCC1C2` (stereo unspecified), for which the IC50 at Phosphodiesterase 4 [1] was 57 µM; against Phosphodiesterase 4 [2], 3.6 µM. Besides, the inhibition in test [3] is -7%.

For the compound `COc1ccc(/C=C2/C(=O)Nc3ccccc32)cc1OC1CC2CCC1C2` (stereo unspecified), the IC50 worked out at 4.6 µM on Phosphodiesterase 4 [1] and 0.48 µM on Phosphodiesterase 4 [2]. The inhibition in test [3] was 42%.
